Measured values from patent publication US20180284095A1, “BIOMARKERS ASSOCIATED WITH LSD1 INHIBITORS AND USES THEREOF” (Oryzon Genomics, S.A., priority 2015, published 2018).

Legend:
S100A9 = assay: Microarray gene expression in brain, spleen and liver of Hsd:Athymic Nude-Foxn1nu mice (Example 7); format: in vivo, mouse
Protocol: (§1) Total RNA was extracted from samples using the RNeasy extraction kit (Qiagen). The quality and concentration of the RNA was analyzed using the Agilent 2100 bioanalyzer and NanoDrop™ ND-1000 (Thermo Scientific). Samples with RNA integrity number (RIN)<6.0 were discarded. Total RNA (0.5 μg) amplification and labelling with Cy3 or Cy5 was carried out using the Eberwein mRNA amplification procedure (Van Gelder et al, Proc Natl Acad Sci USA 1990, 87:1663-1667) employing the MessageAmp™ aRNA amplification kit from Ambion (Applied Biosystems) following the manufacturer's instructions with minor modifications. As hybridization controls, plant mRNAs were transcribed from a plasmid containing the Zea mays Xet (xyloglucan endo-transglycosylase) cDNA and from a plasmid containing the Zea mays Zmmyb42 cDNA, independently prepared Cy3 and Cy5 labelled aRNA from these two RNAs using the Eberwein mRNA amplification procedure (as disclosed in Cerdà et al, Gen Comp Endocrinol 2008, 156:470-481).
(§2) The Cy3- and Cy5-labelled cRNAs and spikes were combined and hybridized to the microarray described in Example 2.6 for 17 h at 60° C. using Agilent's gaskets G2534-60002, G2534A hybridization chambers and DNA Hybridization Oven G2545A, according to the manufacturer's instructions. More specifically, equal amounts of Cy3 and Cy5 labeled Xet aRNA as well as equal amounts of Cy3 and Cy5 labeled Zmmyb42 aRNA were spiked into each mixture hybridized to the array. Arrays were washed and raw data were obtained using Agilent's DNA Microarray Scanner G2505B and Feature Extraction software (v10.1). The raw fluorescence intensity data were processed using applicant's proprietary software, and consists in the following operations:
(§3) Data normalization was carried out by an improved version of the nonlinear Q-splines normalization method (Workman et al., Genome Biol 2002, 3(9):research0048.1-0048.16). Normalization results were presented graphically as MA plots, as first described by Dudoit et al (Dudoit et al, Statistica Sinica, 2002, 12:111-139). Each point corresponds to a probe of the DNA array. M values (vertical axis) are the log-differential expression ratios. A values (horizontal axis) are the log-intensities of the spots. M and A are calculated from the Cy5 and Cy3 intensity values as of each spot. The DNA Array data is normalized using an improved version of non-linear Q-Splines normalization described by Workman et al., Genome Biol 2002, 3(9):research0048.1-0048.16. This process is useful to correct the deviation of the M values from the statistical assumption that most of the spots have M=0 in MA plots. The method allows the adjustment of all M values to form a cloud centered at M=0 in all intensity ranges. The data used to calculate the normalization fitting curve is the totality of the raw measurement dataset, excluding the signals for the probes for the spiked-in plant RNA controls and negative controls. In order to be able to normalize properly the data among all the experiments, the probe-set must include an important group of genes that should have no change (M=0) in the experiment. The normalization function is then applied to all the data, including controls.
(§4) Normalized and log-transformed data were used to calculate log 2 (sample/control) and Fold Change (FC) values. No background subtraction was applied to the signal intensity values during data processing, permitting robust selection of differentially expressed genes with low expression levels at the cost of potential sub-estimation of change when intensity levels are close to the array background level.
(§5) Powered Compound 3, 4 or 5 was dissolved in a 20% solution of 2-hydroxypropyl-R-cyclodextrin in water at the appropriate concentrations, vortexed and placed in an ultrasonic bath for 5 minutes.
(§6) Hsd:Athymic Nude-Foxn1nu mice were maintained in air- and temperature-controlled cages with regular supply of water and food. A maximum of 6 mice/cage were raised. […]

S100A8 = assay: as above; format: in vivo, mouse
Protocol: as §1, §2, §3, §4, §5, §6

SMILES: NC(=O)CN[C@H]1C[C@@H]1c1ccc(OCc2ccccc2)cc1 (racemic) [Compound 3, 2-(((trans)-2-(4-(benzyloxy)phenyl)cyclopropyl)amino)acetamide]
- Hybridization signal sample_Cy5 (S100A9; BRAIN, S100A9, 5 mg/kg): 756.846
- log2 (sample/control) (S100A9; BRAIN, S100A9, 5 mg/kg vs VEH): 0.1106
- Hybridization signal sample_Cy5 (S100A9; BRAIN, S100A9, 10 mg/kg): 465.025
- log2 (sample/control) (S100A9; BRAIN, S100A9, 10 mg/kg vs VEH): −0.5589
- Hybridization signal sample_Cy5 (S100A9; BRAIN, S100A9, 20 mg/kg): 268.93
- log2 (sample/control) (S100A9; BRAIN, S100A9, 20 mg/kg vs VEH): −1.388
- Hybridization signal sample_Cy5 (S100A9; BRAIN, S100A9, 40 mg/kg): 208.488
- log2 (sample/control) (S100A9; BRAIN, S100A9, 40 mg/kg vs VEH): −1.798
- Hybridization signal sample_Cy5 (S100A9; LIVER, S100A9, 5 mg/kg): 820.026
- log2 (sample/control) (S100A9; LIVER, S100A9, 5 mg/kg vs VEH): −1.469
- Hybridization signal sample_Cy5 (S100A9; LIVER, S100A9, 10 mg/kg): 841.06
- log2 (sample/control) (S100A9; LIVER, S100A9, 10 mg/kg vs VEH): −1.41
- Hybridization signal sample_Cy5 (S100A9; LIVER, S100A9, 20 mg/kg): 862.896
- log2 (sample/control) (S100A9; LIVER, S100A9, 20 mg/kg vs VEH): −1.44
- Hybridization signal sample_Cy5 (S100A9; LIVER, S100A9, 40 mg/kg): 412.209
- log2 (sample/control) (S100A9; LIVER, S100A9, 40 mg/kg vs VEH): −2.571
- Hybridization signal sample_Cy5 (S100A9; SPLEEN, S100A9, 5 mg/kg): 10802.4
- log2 (sample/control) (S100A9; SPLEEN, S100A9, 5 mg/kg vs VEH): −1.213
- Hybridization signal sample_Cy5 (S100A9; SPLEEN, S100A9, 10 mg/kg): 15182.8
- log2 (sample/control) (S100A9; SPLEEN, S100A9, 10 mg/kg vs VEH): −0.5812
- Hybridization signal sample_Cy5 (S100A9; SPLEEN, S100A9, 20 mg/kg): 15717.4
- log2 (sample/control) (S100A9; SPLEEN, S100A9, 20 mg/kg vs VEH): −0.5179
- Hybridization signal sample_Cy5 (S100A9; SPLEEN, S100A9, 40 mg/kg): 13461.8
- log2 (sample/control) (S100A9; SPLEEN, S100A9, 40 mg/kg vs VEH): −1.719
- Hybridization signal sample_Cy5 (S100A8; BRAIN, S100A8, 5 mg/kg): 229.714
- log2 (sample/control) (S100A8; BRAIN, S100A8, 5 mg/kg vs VEH): −0.116
- Hybridization signal sample_Cy5 (S100A8; BRAIN, S100A8, 10 mg/kg): 185.235
- log2 (sample/control) (S100A8; BRAIN, S100A8, 10 mg/kg vs VEH): −0.3304
- Hybridization signal sample_Cy5 (S100A8; BRAIN, S100A8, 20 mg/kg): 108.854
- log2 (sample/control) (S100A8; BRAIN, S100A8, 20 mg/kg vs VEH): −1.218
- Hybridization signal sample_Cy5 (S100A8; BRAIN, S100A8, 40 mg/kg): 89.5415
- log2 (sample/control) (S100A8; BRAIN, S100A8, 40 mg/kg vs VEH): −1.598
- Hybridization signal sample_Cy5 (S100A8; LIVER, S100A8, 5 mg/kg): 250.202
- log2 (sample/control) (S100A8; LIVER, S100A8, 5 mg/kg vs VEH): −1.371
- Hybridization signal sample_Cy5 (S100A8; LIVER, S100A8, 10 mg/kg): 280.387
- log2 (sample/control) (S100A8; LIVER, S100A8, 10 mg/kg vs VEH): −1.1185
- Hybridization signal sample_Cy5 (S100A8; LIVER, S100A8, 20 mg/kg): 266.01
- log2 (sample/control) (S100A8; LIVER, S100A8, 20 mg/kg vs VEH): −1.318
- Hybridization signal sample_Cy5 (S100A8; LIVER, S100A8, 40 mg/kg): 161.23
- log2 (sample/control) (S100A8; LIVER, S100A8, 40 mg/kg vs VEH): −2.177
- Hybridization signal sample_Cy5 (S100A8; SPLEEN, S100A8, 5 mg/kg): 4533.52
- log2 (sample/control) (S100A8; SPLEEN, S100A8, 5 mg/kg vs VEH): −1.181
- Hybridization signal sample_Cy5 (S100A8; SPLEEN, S100A8, 10 mg/kg): 6342.81
- log2 (sample/control) (S100A8; SPLEEN, S100A8, 10 mg/kg vs VEH): −0.4706
- Hybridization signal sample_Cy5 (S100A8; SPLEEN, S100A8, 20 mg/kg): 7014.94
- log2 (sample/control) (S100A8; SPLEEN, S100A8, 20 mg/kg vs VEH): −0.5296
- Hybridization signal sample_Cy5 (S100A8; SPLEEN, S100A8, 40 mg/kg): 4802.3
- log2 (sample/control) (S100A8; SPLEEN, S100A8, 40 mg/kg vs VEH): −1.65
